# In ChEMBL document CHEMBL4017541, “Membrane-Active Hydantoin Derivatives as Antibiotic Agents” (J Med Chem, 2017):
# Calls of active or inactive are those of the source. The rule behind the calls is not given here.
# Tests used:
# [1] = system: Staphylococcus epidermidis; assay: Antimicrobial activity against methicillin resistant Staphylococcus epidermidis RP62A after 16 hrs; assay type: functional
# [2] = system: Pseudomonas aeruginosa; assay: Antimicrobial activity against Pseudomonas aeruginosa ATCC 27853 after 16 hrs; assay type: functional; conditions: ATCC 27853, 16 h
# [3] = system: Klebsiella pneumoniae; assay: Antimicrobial activity against Klebsiella pneumoniae ATCC 13383 after 16 hrs; assay type: functional; conditions: ATCC 13383, 16 h
# [4] = system: Staphylococcus aureus; assay: Antimicrobial activity against methicillin resistant Staphylococcus aureus ATCC 33591 after 16 hrs; assay type: functional; conditions: ATCC 33591, 16 h
# [5] = system: Enterococcus faecalis; assay: Antimicrobial activity against vancomycin resistant Enterococcus faecalis ATCC 700802 after 16 hrs; assay type: functional; conditions: ATCC 700802, 16 h
# [6] = system: Escherichia coli; assay: Antimicrobial activity against Escherichia coli ATCC 25922 after 16 hrs; assay type: functional; conditions: ATCC 25922, 16 h
# [7] = Retention time of compound by HPLC analysis
# [8] = Selectivity index, ratio of HC50 for mouse RBC to MIC for methicillin resistance Staphylococcus aureus ATCC 33591
# [9] = system: HCT-116; assay: Cytotoxicity against human HCT116 cells; assay type: cell-based
# [10] = system: Staphylococcus aureus; assay: Antibacterial activity against methicillin resistance Staphylococcus aureus ATCC 33591 infected in Wistar rat assessed as reduction in bacterial load in bronchoalveolar lavage of lungs at 10 mg/kg, iv treated 24 hrs post infection measured after 3 days relative to control; assay type: functional; design: scale not given: the % may be the effect or the level left
# [11] = system: Staphylococcus aureus; assay: Antibacterial activity against methicillin resistant Staphylococcus aureus ATCC 33591 infected in Wistar rat assessed as reduction in lung inflammation at 10 mg/kg, iv treated 24 hrs post infection measured after 3 days by hematoxylin/ eosin staining based microscopic analysis; assay type: functional, organism-based
# [12] = system: Staphylococcus aureus; assay: Bactericidal activity against methicillin resistance Staphylococcus aureus ATCC 33591 at 2 ug/ml after 60 mins by time kill analysis; assay type: functional
# [13] = system: Escherichia coli; assay: Bactericidal activity against Escherichia coli ATCC 25922 at 25 to 50 ug/ml after 30 mins by time kill analysis; assay type: functional
# [14] = system: Staphylococcus aureus; assay: Antibacterial activity against methicillin resistance Staphylococcus aureus ATCC 33591 infected in Wistar rat assessed as reduction in bacterial load in bronchoalveolar lavage of lungs at 10 mg/kg, iv treated 24 hrs post infection measured after 5 days relative to control; assay type: functional; design: scale not given: the % may be the effect or the level left
# [15] = system: Staphylococcus aureus; assay: Antibacterial activity against methicillin resistance Staphylococcus aureus ATCC 33591 after 14 serial passage at 0.5 times MIC after 16 hrs; assay type: functional
# [16] = system: Staphylococcus aureus; assay: Induction of membrane disruption in methicillin resistance Staphylococcus aureus ATCC 33591 at 5 ug/ml after 2 hrs by propidium iodide/4', 6'-diamidino-2-phenylindole dihydrochloride dye based fluorescence microscopy; assay type: functional
# [17] = system: Escherichia coli; assay: Bactericidal activity against Escherichia coli ATCC 25922 at 4 ug/ml after 60 mins by time kill analysis; assay type: functional
# [18] = system: Escherichia coli; assay: Induction of membrane disruption in Escherichia coli ATCC 25922 at 5 ug/ml after 2 hrs by propidium iodide/4', 6'-diamidino-2-phenylindole dihydrochloride dye based fluorescence microscopy; assay type: functional
# [19] = system: Staphylococcus aureus; assay: Antibacterial activity against methicillin resistant Staphylococcus aureus ATCC 33591 infected in Wistar rat assessed as reduction in lung inflammation at 10 mg/kg, iv treated 24 hrs post infection measured after 5 days by hematoxylin/ eosin staining based microscopic analysis; assay type: functional, organism-based
# [20] = system: Staphylococcus aureus; assay: Bactericidal activity against methicillin resistance Staphylococcus aureus ATCC 33591 at 25 ug/ml after 10 mins by time kill analysis; assay type: functional
Structure (SMILES),MIC [1] [µg/mL],MIC [2] [µg/mL],MIC [3] [µg/mL],MIC [4] [µg/mL],MIC [5] [µg/mL],MIC [6] [µg/mL],Retention time [7] [min],other results
CCCCCCCCCCCCCC(=O)N[C@@H](CCCCN)CN1CC(=O)N(CCCC)C1=O,6.25,> 50,12.5,6.25,6.25,6.25,,
CCCCCCCCCCCC(=O)N[C@@H](CCCCN)CN1CC(=O)N(CC)C1=O,> 50,> 50,> 50,> 50,> 50,12.5,< 26,
CCCCCCCCCCCCCCCC(=O)N[C@@H](CCCCN)CN1CC(=O)N(C2CCCCC2)C1=O,25,> 50,> 50,3.12,25,> 50,,
CCCCCCCCCCCCCCCC(=O)N[C@@H](CCCCN)CN1CC(=O)N(CC)C1=O,3.12,> 50,12.5,3.12,3.12,3.12,< 26,
CCCCCCCCCCCC(=O)N[C@@H](CCCCN)CN1CC(=O)N(C23CC4CC(CC(C4)C2)C3)C1=O,6.25,> 50,> 50,6.25,6.25,12.5,,
CCCCCCCCCCCC(=O)N[C@@H](CCCCN)CN1CC(=O)N(c2ccc(OC)cc2)C1=O,25,12.5,12.5,25,25,12.5,< 26,Selectivity Index [8]: 8
CCCCCCCCCCCCCC(=O)N[C@@H](CCCCN)CN1CC(=O)N(C23CC4CC(CC(C4)C2)C3)C1=O,3.15,> 50,> 50,,6.25,> 50,,
CCCCCCCCCC(=O)N[C@@H](CCCCN)CN1CC(=O)N(c2ccc(OC)cc2)C1=O,> 50,> 50,> 50,> 50,> 50,> 50,< 26,
CCCCCCCCCCCCCC(=O)N[C@@H](CCCCN)CN1CC(=O)N(c2cccc(Cl)c2)C1=O,12.5,> 50,> 50,12.5,12.5,> 50,,
CCCCCCCCCC(=O)N[C@@H](CCCCN)CN1CC(=O)N(C23CC4CC(CC(C4)C2)C3)C1=O,6.25,12.5,6.25,6.25,12.5,6.25,,Selectivity Index [8]: 20
CCCCCCCCCCCC(=O)N[C@@H](Cc1ccccc1)CN1CC(=O)N(c2cccc(Cl)c2)C1=O,> 50,> 50,> 50,> 50,> 50,> 50,< 26,
CCCCCCCCCCCC(=O)N[C@@H](CCCCN)CN1CC(=O)N(CCCC)C1=O,25,25,12.5,12.5,25,6.25,< 26,Selectivity Index [8]: 6.4
CCCCCCCCCCCCCC(=O)N[C@@H](CCCCN)CN1CC(=O)N(c2ccc(OC)cc2)C1=O,6.25,> 50,25,6.25,6.25,6.25,,
CCCCCCCCCCCC(=O)N[C@@H](CCCCN)CN1CC(=O)N(c2cccc(Cl)c2)C1=O,0.5,1,0.78,0.5,0.5,1,28.4,IC50 [9]: 100 µg/mL; Activity [10]: 70%; Activity [11]: Active; Activity [12]: Active; Activity [13]: Active; Selectivity Index [8]: 190; Activity [14]: 96%; Activity [15]: Active; Activity [16]: Active; Activity [17]: Active; Activity [18]: Active; Activity [19]: Active; Activity [20]: Active
CCCCCCCCCC(=O)N[C@@H](CCCCN)CN1CC(=O)N(CC)C1=O,> 50,> 50,> 50,> 50,> 50,> 50,< 26,
CCCCCCCCCCCCCCCC(=O)N[C@@H](CCCCN)CN1CC(=O)N(CCCC)C1=O,6.25,> 50,> 50,6.25,6.25,> 50,,
CCCCCCCCCCCCCC(=O)N[C@@H](CCCCN)CN1CC(=O)N(CC)C1=O,6.25,12.5,6.25,6.25,6.25,3.12,,Selectivity Index [8]: 14.4
CCCCCCCCCCCCCCCC(=O)N[C@@H](CCCCN)CN1CC(=O)N(c2cccc(Cl)c2)C1=O,12.5,> 50,> 50,12.5,12.5,> 50,,
CCCCCCCCCC(=O)N[C@@H](CCCCN)CN1CC(=O)N(C2CCCCC2)C1=O,> 50,> 50,25,25,> 50,12.5,< 26,
CCCCCCCCCCCCCCCC(=O)N[C@@H](CCCCN)CN1CC(=O)N(c2ccc(OC)cc2)C1=O,6.25,> 50,> 50,3.12,6.25,> 50,,
CCCCCCCCCCCCCCCC(=O)N[C@@H](CCCCN)CN1CC(=O)N(C23CC4CC(CC(C4)C2)C3)C1=O,> 50,> 50,> 50,> 50,> 50,> 50,,
CCCCCCCCCC(=O)N[C@@H](CCCCN)CN1CC(=O)N(CCCC)C1=O,> 50,> 50,> 50,> 50,> 50,> 50,< 26,
CCCCCCCCCC(=O)N[C@@H](CCCCN)CN1CC(=O)N(c2cccc(Cl)c2)C1=O,6.25,6.25,6.25,6.25,12.5,6.25,,Selectivity Index [8]: 16
CCCCCCCCCCCCCC(=O)N[C@@H](CCCCN)CN1CC(=O)N(C2CCCCC2)C1=O,6.25,> 50,6.25,3.12,6.25,12.5,,
O=C1CN(/N=C/c2ccc([N+](=O)[O-])o2)C(=O)N1 [NITROFURANTOIN],6.25,> 50,25,12.5,12.5,6.25,,
CCCCCCCCCCCC(=O)N[C@@H](CCCCN)CN1CC(=O)N(C2CCCCC2)C1=O,6.25,12.5,6.25,6.25,12.5,6.25,,Selectivity Index [8]: 16
CN[C@H](CC(C)C)C(=O)N[C@H]1C(=O)N[C@@H](CC(N)=O)C(=O)N[C@H]2C(=O)N[C@H]3C(=O)N[C@H](C(=O)N[C@H](C(=O)O)c4cc(O)cc(O)c4-c4cc3ccc4O)[C@H](O)c3ccc(c(Cl)c3)Oc3cc2cc(c3O[C@@H]2O[C@H](CO)[C@@H](O)[C@H](O)[C@H]2O[C@H]2C[C@](C)(N)[C@H](O)[C@H](C)O2)Oc2ccc(cc2Cl)[C@H]1O [VANCOMYCIN],,,,,,,,Activity [10]: 30%; Activity [11]: Active; Activity [14]: 45%; Activity [19]: Active
